Assay results as given in ChEMBL document CHEMBL1201862, “PubChem BioAssay data set” (2004).
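Grown in 96-well plates, cells were treated for 48 hours with each compound at five concentrations. Insufficient inhibition: endpoint recorded as highest concentration tested. At the GI50, growth is halved.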 Calls of active or inactive are those of the source. No stated cut-off is given here; in the data, active = GI50 up to about 1.1 µM and inactive = higher.

Columns and labels:
Assay in all cases: NCI anticancer screen, dose series, 48 h
XF498 = tested on: XF498
MOLT-4 = tested on: MOLT-4
SNB-19 = tested on: SNB-19
K562 = tested on: K562
SF-295 = tested on: SF-295
DMS-273 = tested on: DMS-273
SF-539 = tested on: SF-539
UACC-62 = tested on: UACC-62
LXFL 529 = tested on: LXFL 529
A498 = tested on: A498
DMS-114 = tested on: DMS-114
SK-MEL-2 = tested on: SK-MEL-2
HL-60 = tested on: HL-60
HT-29 = tested on: HT-29
SF-268 = tested on: SF-268
DLD-1 = tested on: DLD-1
M19-MEL = tested on: M19-MEL
HOP-62 = tested on: HOP-62
SK-MEL-28 = tested on: SK-MEL-28
TK-10 = tested on: TK-10
SN12C = tested on: SN12C
OVCAR-8 = tested on: OVCAR-8
HCT-116 = tested on: HCT-116
Malme-3M = tested on: Malme-3M
OVCAR-3 = tested on: OVCAR-3
IGROV-1 = tested on: IGROV-1
SNB-75 = tested on: SNB-75
EKVX = tested on: EKVX
SR = tested on: SR
SK-OV-3 = tested on: SK-OV-3
HCC 2998 = tested on: HCC 2998
M14 = tested on: M14
HOP-92 = tested on: HOP-92
RXF 631 = tested on: RXF 631
UO-31 = tested on: UO-31
SW-620 = tested on: SW-620
NCI-H522 = tested on: NCI-H522
SNB-78 = tested on: SNB-78
COLO 205 = tested on: COLO 205
CAKI-1 = tested on: CAKI-1
NCI-H226 = tested on: NCI-H226
OVCAR-4 = tested on: OVCAR-4
KM12 = tested on: KM12
CCRF-CEM = tested on: CCRF-CEM
A549 = tested on: A549
NCI-H23 = tested on: NCI-H23
UACC-257 = tested on: UACC-257
786-0 = tested on: 786-0
RPMI-8226 = tested on: RPMI-8226
KM-20L2 = tested on: KM-20L2
ACHN = tested on: ACHN
LOX IMVI = tested on: LOX IMVI
U-251 = tested on: U-251
OVCAR-5 = tested on: OVCAR-5
HCT-15 = tested on: HCT-15
RXF 393 = tested on: RXF 393
SK-MEL-5 = tested on: SK-MEL-5
NCI-H460 = tested on: NCI-H460

## CCCCCCCCCCCCCCCCCCOCC(C[N+]1(C)CCC(O)CC1)OCC (stereo not given)
XF498
  GI50: 13.3 µM (inactive)
MOLT-4
  GI50: 2.87 µM (inactive)
SNB-19
  GI50: 6.73 µM (inactive)
K562
  GI50: 4.17 µM (inactive)
SF-295
  GI50: 4.68 µM (inactive)
DMS-273
  GI50: 2.28 µM (inactive)
SF-539
  GI50: 14.9 µM (inactive)
UACC-62
  GI50: 5.27 µM (inactive)
LXFL 529
  GI50: 2.84 µM (inactive)
A498
  GI50: 11.7 µM (inactive)
DMS-114
  GI50: 3.19 µM (inactive)
SK-MEL-2
  GI50: 4.3 µM (inactive)
HL-60
  GI50: 1.79 µM (inactive)
HT-29
  GI50: 3.37 µM (inactive)
SF-268
  GI50: 3.39 µM (inactive)
DLD-1
  GI50: 11.8 µM (inactive)
M19-MEL
  GI50: 3.52 µM (inactive)
HOP-62
  GI50: 4.23 µM (inactive)
SK-MEL-28
  GI50: 12.7 µM (inactive)
TK-10
  GI50: 3.92 µM (inactive)
SN12C
  GI50: 4.06 µM (inactive)
OVCAR-8
  GI50: 4.2 µM (inactive)
HCT-116
  GI50: 7.71 µM (inactive)
Malme-3M
  GI50: 12.3 µM (inactive)
OVCAR-3
  GI50: 3.85 µM (inactive)
IGROV-1
  GI50: 5.13 µM (inactive)
SNB-75
  GI50: 3.95 µM (inactive)
EKVX
  GI50: 13.8 µM (inactive)
SR
  GI50: 1.78 µM (inactive)
SK-OV-3
  GI50: 2.92 µM (inactive)
HCC 2998
  GI50: 12.7 µM (inactive)
M14
  GI50: 9.51 µM (inactive)
HOP-92
  GI50: 1.78 µM (inactive)
RXF 631
  GI50: 4.93 µM (inactive)
UO-31
  GI50: 11.9 µM (inactive)
SW-620
  GI50: 5.48 µM (inactive)
NCI-H522
  GI50: 5.71 µM (inactive)
SNB-78
  GI50: 3.18 µM (inactive)
COLO 205
  GI50: 3.38 µM (inactive)
CAKI-1
  GI50: 5.65 µM (inactive)
NCI-H226
  GI50: 3.08 µM (inactive)
OVCAR-4
  GI50: 4.1 µM (inactive)
KM12
  GI50: 1.84 µM (inactive)
CCRF-CEM
  GI50: 1.97 µM (inactive)
A549
  GI50: 5.87 µM (inactive)
NCI-H23
  GI50: 2.88 µM (inactive)
UACC-257
  GI50: 10.9 µM (inactive)
786-0
  GI50: 4.18 µM (inactive)
RPMI-8226
  GI50: 2.77 µM (inactive)

## CNC(=O)N(CCCCC(NC(C)=O)C(=O)NCc1ccccc1)Cc1ccccc1 (stereo not given)
KM-20L2
  GI50: > 100 µM (inactive)
ACHN
  GI50: > 100 µM (inactive)
XF498
  GI50: > 100 µM (inactive)
MOLT-4
  GI50: > 100 µM (inactive)
SNB-19
  GI50: > 100 µM (inactive)
K562
  GI50: > 100 µM (inactive)
LOX IMVI
  GI50: > 100 µM (inactive)
SF-295
  GI50: > 100 µM (inactive)
DMS-273
  GI50: > 100 µM (inactive)
SF-539
  GI50: > 100 µM (inactive)
UACC-62
  GI50: > 100 µM (inactive)
LXFL 529
  GI50: > 100 µM (inactive)
A498
  GI50: > 100 µM (inactive)
DMS-114
  GI50: > 100 µM (inactive)
U-251
  GI50: > 100 µM (inactive)
SK-MEL-2
  GI50: > 100 µM (inactive)
OVCAR-5
  GI50: > 100 µM (inactive)
HT-29
  GI50: > 100 µM (inactive)
SF-268
  GI50: > 100 µM (inactive)
DLD-1
  GI50: > 100 µM (inactive)
M19-MEL
  GI50: > 100 µM (inactive)
HCT-15
  GI50: > 100 µM
HOP-62
  GI50: > 100 µM (inactive)
SK-MEL-28
  GI50: > 100 µM (inactive)
TK-10
  GI50: > 100 µM (inactive)
SN12C
  GI50: > 100 µM (inactive)
OVCAR-8
  GI50: > 100 µM (inactive)
HCT-116
  GI50: > 100 µM (inactive)
Malme-3M
  GI50: > 100 µM (inactive)
OVCAR-3
  GI50: > 100 µM (inactive)
IGROV-1
  GI50: > 100 µM (inactive)
SNB-75
  GI50: > 100 µM (inactive)
EKVX
  GI50: > 100 µM (inactive)
SK-OV-3
  GI50: > 100 µM (inactive)
HCC 2998
  GI50: > 100 µM (inactive)
RXF 393
  GI50: > 100 µM (inactive)
M14
  GI50: > 100 µM (inactive)
HOP-92
  GI50: > 100 µM (inactive)
RXF 631
  GI50: > 100 µM (inactive)
UO-31
  GI50: > 100 µM (inactive)
SW-620
  GI50: > 100 µM (inactive)
NCI-H522
  GI50: > 100 µM (inactive)
SK-MEL-5
  GI50: > 100 µM (inactive)
SNB-78
  GI50: > 100 µM (inactive)
COLO 205
  GI50: > 100 µM (inactive)
CAKI-1
  GI50: > 100 µM (inactive)
NCI-H226
  GI50: > 100 µM (inactive)
OVCAR-4
  GI50: > 100 µM (inactive)
NCI-H460
  GI50: > 100 µM (inactive)
KM12
  GI50: > 100 µM (inactive)
CCRF-CEM
  GI50: > 100 µM (inactive)
A549
  GI50: > 100 µM (inactive)
NCI-H23
  GI50: > 100 µM (inactive)
UACC-257
  GI50: > 100 µM (inactive)
786-0
  GI50: > 100 µM (inactive)
RPMI-8226
  GI50: > 100 µM (inactive)

## N#CC(C#N)=C1CCC2C(=C(C#N)C#N)CCC12 (stereo not given)
KM-20L2
  GI50: > 100 µM (inactive)
XF498
  GI50: > 100 µM (inactive)
MOLT-4
  GI50: > 100 µM (inactive)
SNB-19
  GI50: > 100 µM (inactive)
K562
  GI50: > 100 µM (inactive)
LOX IMVI
  GI50: > 100 µM (inactive)
SF-295
  GI50: > 100 µM (inactive)
DMS-273
  GI50: > 100 µM (inactive)
SF-539
  GI50: > 100 µM (inactive)
UACC-62
  GI50: > 100 µM (inactive)
LXFL 529
  GI50: > 100 µM (inactive)
A498
  GI50: > 100 µM (inactive)
DMS-114
  GI50: > 100 µM (inactive)
U-251
  GI50: > 100 µM (inactive)
OVCAR-5
  GI50: > 100 µM (inactive)
HL-60
  GI50: > 100 µM (inactive)
HT-29
  GI50: > 100 µM (inactive)
SF-268
  GI50: > 100 µM (inactive)
DLD-1
  GI50: > 100 µM (inactive)
M19-MEL
  GI50: > 100 µM (inactive)
HCT-15
  GI50: > 100 µM
HOP-62
  GI50: > 100 µM (inactive)
TK-10
  GI50: > 100 µM (inactive)
SN12C
  GI50: > 100 µM (inactive)
OVCAR-8
  GI50: > 100 µM (inactive)
HCT-116
  GI50: > 100 µM (inactive)
Malme-3M
  GI50: > 100 µM (inactive)
OVCAR-3
  GI50: > 100 µM (inactive)
IGROV-1
  GI50: > 100 µM (inactive)
SNB-75
  GI50: > 100 µM (inactive)
EKVX
  GI50: > 100 µM (inactive)
SR
  GI50: > 100 µM (inactive)
SK-OV-3
  GI50: > 100 µM (inactive)
HCC 2998
  GI50: > 100 µM (inactive)
RXF 393
  GI50: > 100 µM (inactive)
M14
  GI50: > 100 µM (inactive)
HOP-92
  GI50: > 100 µM (inactive)
RXF 631
  GI50: > 100 µM (inactive)
UO-31
  GI50: > 100 µM (inactive)
SW-620
  GI50: > 100 µM (inactive)
NCI-H522
  GI50: > 100 µM (inactive)
SK-MEL-5
  GI50: > 100 µM (inactive)
SNB-78
  GI50: > 100 µM (inactive)
COLO 205
  GI50: > 100 µM (inactive)
CAKI-1
  GI50: > 100 µM (inactive)
NCI-H226
  GI50: > 100 µM (inactive)
OVCAR-4
  GI50: > 100 µM (inactive)
NCI-H460
  GI50: > 100 µM (inactive)
KM12
  GI50: > 100 µM (inactive)
CCRF-CEM
  GI50: > 100 µM (inactive)
A549
  GI50: > 100 µM (inactive)
NCI-H23
  GI50: > 100 µM (inactive)
UACC-257
  GI50: > 100 µM (inactive)
786-0
  GI50: > 100 µM (inactive)
RPMI-8226
  GI50: > 100 µM (inactive)
